# Key:
# GSH reaction assay = format: in vitro ADME; details: GSH 5 mM, inhibitor 1 mM, 37°C, 10–60 min
# Experimental: GSH (5 mM) and inhibitor (1 mM) or DMSO control were mixed in equal volumes and reacted at 37°C for 10 min, 20 min, 30 min, 40 min, 50 min, and 60 min. The remaining GSH was detected with DTNB (Beyotime, China), and the absorption light was measured at 412 nm on a plate reader (Perkin-Elmer). Data were determined using the time (min) versus % of control in Origin 2018 software.
# FGFR4(C552A) mutant = details: cited from earlier work
# FGFR4(C477A) = biological target: T1, FGFR4(C477A) (Homo sapiens, UniProt P22455, C477A); experiment: MALDI-TOF MS covalent binding
# T1 construct: FGFR4 (residues 445–753); 6xHis + PreScission site (N, cleaved yes); made in house; host or cells: Escherichia coli Rosseta
# Experimental: (§1) Wild-type FGFRs and mutant FGFRs were prepared as previously described[25]–[27]. […] The N-terminal of the recombinant proteins were contained a 6xHis tag followed by a PreScission cleavage site for FGFR1, FGFR2, FGFR3, and FGFR4. Site-directed mutagenesis of FGFR4 was generated according to the ClonExpress II One Step Cloning Kit (Vazyme) using the pET28a-FGFR4 plasmid as the template. […] For crystallization experiments, the wild-type FGFR4 plasmid was co-expressed with untagged YOPH to obtain non-phosphorylated proteins. The proteins were first purified by Ni-NTA affinity chromatography. The 6 × His tag was removed by PreScission protease. Then, anion exchange chromatography (Mono Q) and size exclusion chromatography (if necessary) were exploited for further purification. The target proteins were concentrated to ~5–15 mg/mL and flash frozen for storage at −80°C for subsequent studies.
# FGFR4 = biological target: T2, FGFR4 (Homo sapiens, UniProt P22455); experiment: MALDI-TOF MS covalent binding
# T2 construct: purchased ICE Bioscience
# Experimental: as §1
# FGFR4(C552A) = biological target: T3, FGFR4(C552A) (Homo sapiens, UniProt P22455, C552A); experiment: MALDI-TOF MS covalent binding
# T3 construct: FGFR4 (residues 445–753); 6xHis + PreScission site (N, cleaved yes); made in house; host or cells: Escherichia coli Rosseta
# Experimental: as §1
# FGFR1 = FGFR1 (Homo sapiens, UniProt P11362); experiment: MALDI-TOF MS covalent binding
# Chain of FGFR1 (P11362 22-822): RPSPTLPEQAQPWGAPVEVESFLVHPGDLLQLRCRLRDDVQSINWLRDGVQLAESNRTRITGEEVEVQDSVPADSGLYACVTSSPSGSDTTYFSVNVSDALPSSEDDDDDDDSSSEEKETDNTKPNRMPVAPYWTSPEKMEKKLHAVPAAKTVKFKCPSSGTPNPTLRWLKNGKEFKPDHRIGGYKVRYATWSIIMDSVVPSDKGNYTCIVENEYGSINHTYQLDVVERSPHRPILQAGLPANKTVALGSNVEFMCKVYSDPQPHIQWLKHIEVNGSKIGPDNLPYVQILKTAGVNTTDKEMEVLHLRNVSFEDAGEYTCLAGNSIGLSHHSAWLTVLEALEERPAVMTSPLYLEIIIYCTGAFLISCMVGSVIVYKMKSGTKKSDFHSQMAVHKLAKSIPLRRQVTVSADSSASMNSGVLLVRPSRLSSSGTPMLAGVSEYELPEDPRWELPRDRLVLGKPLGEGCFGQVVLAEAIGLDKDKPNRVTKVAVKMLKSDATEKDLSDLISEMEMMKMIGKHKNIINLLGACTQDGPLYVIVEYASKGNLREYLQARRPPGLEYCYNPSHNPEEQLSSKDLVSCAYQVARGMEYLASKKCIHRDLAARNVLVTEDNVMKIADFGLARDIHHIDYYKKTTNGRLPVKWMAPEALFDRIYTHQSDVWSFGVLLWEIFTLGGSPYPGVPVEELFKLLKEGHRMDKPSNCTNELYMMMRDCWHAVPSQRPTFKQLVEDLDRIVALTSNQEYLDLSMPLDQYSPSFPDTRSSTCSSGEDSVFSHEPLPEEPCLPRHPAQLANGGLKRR
# T1 sequence (P22455 445-753 C477A): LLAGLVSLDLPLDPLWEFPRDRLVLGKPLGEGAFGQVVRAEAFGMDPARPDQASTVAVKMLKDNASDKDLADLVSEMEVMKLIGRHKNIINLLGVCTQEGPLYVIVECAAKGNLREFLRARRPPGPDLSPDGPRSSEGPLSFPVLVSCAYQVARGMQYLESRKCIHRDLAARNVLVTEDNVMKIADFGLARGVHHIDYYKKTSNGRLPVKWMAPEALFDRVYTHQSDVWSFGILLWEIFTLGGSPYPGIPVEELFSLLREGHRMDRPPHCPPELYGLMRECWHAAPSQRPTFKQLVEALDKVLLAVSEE
# T3 sequence (P22455 445-753 C552A): as the sequence (P22455 445-753 C477A) above, with A33C, C108A counted along it
# T2 sequence (P22455 22-802): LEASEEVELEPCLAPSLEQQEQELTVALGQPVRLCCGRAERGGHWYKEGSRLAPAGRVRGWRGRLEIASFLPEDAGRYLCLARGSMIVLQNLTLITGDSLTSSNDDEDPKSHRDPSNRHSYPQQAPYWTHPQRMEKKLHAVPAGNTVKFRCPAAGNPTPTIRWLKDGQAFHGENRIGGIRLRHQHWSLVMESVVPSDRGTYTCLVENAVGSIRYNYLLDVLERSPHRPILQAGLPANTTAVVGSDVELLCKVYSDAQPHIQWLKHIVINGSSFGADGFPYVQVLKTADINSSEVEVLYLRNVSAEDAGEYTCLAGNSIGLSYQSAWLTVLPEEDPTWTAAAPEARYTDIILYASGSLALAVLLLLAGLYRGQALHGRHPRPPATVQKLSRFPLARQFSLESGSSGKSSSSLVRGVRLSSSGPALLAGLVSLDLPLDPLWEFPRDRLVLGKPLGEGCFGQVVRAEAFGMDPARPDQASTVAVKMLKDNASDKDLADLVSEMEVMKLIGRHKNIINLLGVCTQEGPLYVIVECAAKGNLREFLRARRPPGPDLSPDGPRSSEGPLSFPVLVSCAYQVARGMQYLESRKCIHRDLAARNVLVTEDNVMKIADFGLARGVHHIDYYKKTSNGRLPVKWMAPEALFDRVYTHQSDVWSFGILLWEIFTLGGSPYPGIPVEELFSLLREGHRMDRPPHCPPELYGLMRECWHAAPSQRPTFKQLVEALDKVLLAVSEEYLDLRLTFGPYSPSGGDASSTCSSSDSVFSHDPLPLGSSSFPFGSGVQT
compound,measurement,setting,value
"C=CC(=O)N1CCN(CCCn2c(=O)c(-c3c(Cl)c(OC)cc(OC)c3Cl)cc3cnc(NC)nc32)CC1 [PRN1371, 8-(3-(4-Acryloylpiperazin-1-yl)propyl)-6-(2,6-dichloro-3,5-dimethoxyphenyl)-2-(methylamino)pyrido[2,3-d]pyrimidin-7(8H)-one, reference compound]","GSH reactivity (remaining GSH, DTNB)",GSH reaction assay,time-dependent decrease in GSH
C=CC(=O)Nc1cccc(C)c1Nc1ncc2c(n1)N(CCCN1CCN(C(=O)C=C)CC1)C(=O)N(c1cc(OC)cc(OC)c1)C2 [CXF-008],covalent bond formation (mass shift),FGFR4(C477A),forms a covalent bond with FGFR4(C477A)
same,covalent bond formation (mass shift),FGFR4,only forms one covalent bond with Cys552 of FGFR4
same,covalent bond formation (mass shift),FGFR4(C552A),not with FGFR4(C552A)
same,covalent bond formation (mass shift),FGFR1,forms a covalent bond with FGFR1
C=CC(=O)N[C@H]1CCOC[C@H]1Nc1ncc2cc(-c3c(Cl)c(OC)cc(OC)c3Cl)ccc2n1 [BLU554],IC50,FGFR4(C552A) mutant,> 10 µM

# — publication PMC9814781, “Structure-based design of a dual-warhead covalent inhibitor of FGFR4” (Communications Chemistry, 2022)
